Assay results: US20160082036A1, “HYDROXYALKYL STARCH FOR THE TREATMENT OF CANCERS BY REDUCTION OF TUMOR GROWTH RATES” (Fresenius Kabi Deutschland GmbH, priority 2012, published 2016)

Legend:
[1] = test system: human breast cell carcinoma line MT-3; test: Example 5: MT-3 xenograft tumor growth, three studies with different HES types; format: in vivo
Method: In another set of three studies which were performed in analogy to the studies described above in Examples 1 and 2, more different HES types have been analysed in the same setting using the MT3 cell line mouse model.
Docetaxel (Taxotere®) was obtained from Sanofi-Aventis Deutschland GmbH, (Lot CHB D9C895; Berlin, Germany) and was stored in the dark at −20° C. until use. The injection solution was prepared immediately before use by dissolving in saline solution.
Hydroxyethyl starch compounds were obtained from Fresenius Kabi Deutschland GmbH on Dec. 7, 2012 and were stored at room temperature until use. The compounds each were dissolved in saline to obtain 10% w/v solutions. The application was 400 μl/20 g mouse body weight for saline and HES solutions, while Docetaxel was given in a volume of 10 ml/kg as slow bolus. The route of administration was intravenously for all mice.
Adult female NMRI:nu/nu mice (TACONIC Europe, Lille Skensved, Denmark) bred in the own (EPO) colony were used throughout the study. At the start of experiment they were 6-8 weeks of age.
The MT-3 cell line was used for subcutaneous (s.c.) xenotransplantation in immune deficient female NMRI:nu/nu mice. The MT-3 breast carcinoma cell line was obtained from the tumour bank of the National Cancer Institute of the former USSR, WONZ, Moscow.
The cells are cryo-preserved. Cells were thawed, expanded by in vitro culture and transplanted s.c. as cell suspension in female NMRI:nu/nu mice.
The number of 5×10^6 tumour cells was transplanted s.c into the flank of each mouse. The animals were monitored for tumour growth and when tumours were palpable, generally between day 7 and day 10 after transplantation, mice were randomised into the treatment groups with 15 mice each. Day 0 is defined as the day of first treatment.
Individual tumour diameters were measured twice weekly with a calliper-like instrument. Tumour volumes were calculated according to V=(length×(width)^2)/2. […] The relative tumour volume (RTV) and the treated to control (T/C RTV) values in percent were calculated for each measurement day in relation to V values at day 0.
In study 3 mice were sacrificed when the tumor size reached more than 1.5 cm^3, or the tumors ulcereted. Study 3 was finished when the mean TV was in most groups larger than 1.0 cm^3.
Mice were treated with i.v. injection of Docetaxel (Taxotere®) at day 0 and 14 at a dose of 40 mg/kg and with the hydroxyethyl starch compounds (20 ml/kg) once weekly.
In study 1 all mice developed tumours after s.c. transplantation of 5×10^6 MT-3 cells up to a size of 0.046±0.015 cm^3 within 7 days. Mice were treated intravenously with a dose of 40 mg/kg Docetaxel (Taxotere®) at days 0 and 14, whereas four different HES specifications in saline (containing each 10% w/v) were injected in a volume of 20 ml/kg i.v. weekly (day 0, 7, 14). Saline was injected once a week (20 ml/kg). All groups were treated during the whole experimental period accordingly to the planned schedule. The tumour of control mice in study 1 grew up to a volume of 1.1±0.6 cm^3.
In study 2 all mice developed tumours after s.c. transplantation of 5×10^6 MT-3 cells up to a size of 0.081±0.033 cm^3 within 9 days. Mice were treated intravenously with a dose of 40 mg/kg docetaxel at days 0 and 14, whereas four different HES specifications in saline (containing each 10% w/v) were injected in a volume of 20 ml/kg i.v. weekly (day 0, 7, 14). Saline was injected once per week (20 ml/kg). All groups were treated during the whole experimental period accordingly to the planned schedule. The tumour of control mice grew up until day 18 to a volume of 1.48±1.04 cm^3.
In study 3 all mice developed tumours after s.c. transplantation of 5×10^6 MT-3 cells up to a size of 0.059±0.018 cm3 within 7 days. […]

[2] = Example 2: body weight and blood parameters of MT-3 tumor-bearing mice; format: in vivo, NMRI:nu/nu mice
Method: Summary: Mice were either treated with a single i.v. injection of docetaxel (Taxotere®) at a dose of 25 mg/kg or with the plasma expander Voluven® (20 ml/kg) or with HES 100/1.0 (approx. 740 mg/kg) dissolved in saline/EtOH to determine tumor growth and body weight over the course of the experiment.
Adult female NMRI:nu/nu mice (TACONIC Europe, Lille Skensved, Denmark) bred in the own (EPO) colony were used throughout the study.
The application volume was 10 ml/kg (approx. 200 μl/20 g mouse) mouse body weight for vehicle, HES 100/1.0 and docetaxel and 20 ml/kg for Voluven®. The route of administration was by intravenous (i.v.) injection into the tail vein.
Individual body weights of mice were determined two times weekly and mean body weight per treatment group.
Blood samples were drawn from the retro-orbital sinus under iso-flurane anaesthesia three days after the treatment. Blood samples of 50-100 μl were taken into tubes prepared with EDTA for haematological parameters from a subset of each group (generally 30-50%). The following parameters were determined: total leucocyte count (WBC), erythrocyte count (RBC), haemoglobin (HGB), haematocrit (HCT), mean corpuscular volume (MCV), mean corpuscular haemoglobin (MCH), mean corpuscular haemoglobin concentration (MCHC) and platelet count (PLT) using a Coulter Counter instrument.
Statistical evaluation of was performed with the U-test of Mann and Whitney using the Windows program […] 6. A significance level of p<0.05 was used.

[3] = blood drawn three days after single i.v. treatment

Structure (SMILES): CC(=O)O[C@@]12CO[C@@H]1C[C@H](O)[C@@]1(C)C(=O)[C@H](O)C3=C(C)[C@@H](OC(=O)[C@H](O)[C@@H](NC(=O)OC(C)(C)C)c4ccccc4)C[C@@](O)([C@@H](OC(=O)c4ccccc4)[C@H]21)C3(C)C [Docetaxel]
- tumour growth inhibition effect (in words) ([1]; studies 1 to 3, compared to saline control, FIGS. 7, 9, 11): strong inhibitory effect on tumour growth
- RTV T/C ([1]; study 1): 14.4%
- inhibition of tumour growth ([1]; study 1): more than 85%
- RTV T/C ([1]; study 2): 16.9%
- inhibition of tumour growth ([1]; study 2): 83%
- RTV T/C ([1]; study 3, at day 7): 8.8%
- inhibition of tumour growth ([1]; study 3, at day 7): 91%
- body weight development (in words) ([2]; after single i.v. treatment, FIG. 1): Body weight loss
- Platelets × 10^6 at day 11 [2, 3]: 1500 ± 156 × 10^6
- WBC × 10^6 at day 11 [2, 3]: 4.80 ± 0.58 × 10^6
